16 compounds from patent US20250143305A1, “PYRAZOLE COMPOUND AND PEST CONTROL AGENT CONTAINING THE SAME AS ACTIVE INGREDIENT” (MITSUI CHEMICALS CROP & LIFE SOLUTIONS, INC., priority 2022, published 2025) can be followed below.

Type in all cases: in vivo
Assay [1] has as its system Nilaparvata lugens. Kind of assay: Insecticidal test against Nilaparvata lugens, root part of rice seedling immersed. To be noted: 144 h, 2% acetone aqueous solution, 10 young larvae, 25° C., after 6 days, read-out: mortality rate. Here is the method: (§1) Insecticidal Test Against Nilaparvata lugens
12.5 ml of a 2% acetone aqueous solution in which the test compound was adjusted to a predetermined concentration was placed in a container, and a root part of a rice (Oryza sativa) seedling fixed with a sponge and a plastic cylinder was immersed. 10 young larvae were released into the container, and the container was covered with a plastic lid. The container was allowed to stand in a thermostatic chamber at 25° C., and the numbers of living insects and dead insects were examined after 6 days.

The test system of assay [2] is Myzus persicae. The assay can be described thus: Insecticidal test against Myzus persicae, root part of radish seedling immersed. The note with it: 120 h, 2% acetone aqueous solution, 25 young larvae, 25° C., after 5 days, read-out: mortality rate. As to the method:
(§2) Insecticidal Test Against Myzus persicae
12.5 ml of a 2% acetone aqueous solution in which the test compound was adjusted to a predetermined concentration was placed in a container, and a root part of a young radish (Raphanus sativus) seedling that was fixed with a sponge and parasitized with 25 young larvae was immersed. The container was allowed to stand in a thermostatic chamber at 25° C., and the numbers of living insects and dead insects were examined after 5 days.

Assay [3] has as its system Nilaparvata lugens. The assay can be described thus: Insecticidal test against Nilaparvata lugens, spray on rice seedling. The note with it: 144 h, acetone solution sprayed on rice seedling, 10 young larvae, 25° C., after 6 days, read-out: mortality rate. As to the method:
as §1
(§3) 2.5 ml of an acetone solution prepared to have a predetermined concentration of the test compound was sprayed on a rice (Oryza sativa) seedling, and the rice seedling was transferred to a glass tube in which water was retained. After air drying, 10 young larvae were released into the glass tube, and the glass tube was covered with a sponge stopper. The glass tube was allowed to stand in a thermostatic chamber at 25° C., and the numbers of living insects and dead insects were examined after 6 days.

The test system of the next assay is Sogatella furcifera. Kind of assay: Insecticidal test against Sogatella furcifera, spray on rice seedling. To be noted: 144 h, acetone solution sprayed on rice seedling, 10 young larvae, 25° C., after 6 days, read-out: mortality rate. Here is the method: Insecticidal Test Against Sogatella furcifera
as §3

The subject of assay [4] is Myzus persicae. The assay can be described thus: Insecticidal test against Myzus persicae, spray on radish leaves. To be noted: 120 h, 20% acetone aqueous solution sprayed on radish leaves, 25 young larvae, 25° C., after 5 days, read-out: mortality rate. Here is the method: as §2
2.5 ml of a 20% acetone aqueous solution prepared to have a predetermined concentration of the test compound was sprayed on the leaves of radish (Raphanus sativus) in which the roots retained water and 25 young larvae were parasitized. After air drying, it was allowed to stand in a thermostatic chamber at 25° C., and the number of living insects and the number of dead insects were examined after 5 days.

The test system of a further assay is Spodoptera litura. Kind of assay: Insecticidal test against Spodopteta litura, cabbage leaf pieces immersed. To be noted: 144 h, 1,000 ppm, cabbage leaf pieces immersed 30 seconds, five 2nd instar larvae, 25° C., after 6 days, read-out: mortality rate. Here is the method:
Insecticidal Test Against Spodopteta litura
Cabbage (Brassicae oleracea) leaf pieces were immersed in a chemical solution prepared to have a predetermined concentration of the test compound for 30 seconds, air-dried, then placed in a 7 cm polyethylene cup with a filter paper laid thereon, and five 2nd instar larvae of Spodoptera litura were released. The container was allowed to stand in a thermostatic chamber at 25° C., and the numbers of living insects and dead insects were examined after 6 days.

In the case of `CCS(=O)(=O)c1c(-c2cn3cnc(C(F)(F)F)cc3n2)nn(C)c1NC(=O)C(F)(F)F` [compound 1, N-(4-(ethylsulfonyl)-1-methyl-3-(7-(trifluoromethyl)imidazo[1,2-c]pyrimidin-2-yl)-1H-pyrazol-5-yl)-2,2,2-trifluoroacetamide], the mortality at 100 ppm in the assay with Nilaparvata lugens [1], with Myzus persicae [2], with Nilaparvata lugens [3], in the assay with Sogatella furcifera and in the assay on Myzus persicae [4] was not below 50% in each case.

On to `CCSc1c(-c2nc3cc(C(F)(F)F)ncn3n2)nn(C)c1NC(=O)OC(C)(C)C` [compound 4, t-butyl (4-(ethylthio)-1-methyl-3-(7-(trifluoromethyl)-[1,2,4]triazolo[1,5-c]pyrimidin-2-yl)-1H-pyrazol-5-yl)carbamate], for which, in the assay with Nilaparvata lugens [3], the mortality at 100 ppm was not below 50%.

In the case of `CCSc1c(-c2nc3cc(C(F)(F)F)ncn3n2)nn(C)c1N` [compound 5, 4-(ethylthio)-1-methyl-3-(7-(trifluoromethyl)-[1,2,4]triazolo[1,5-c]pyrimidin-2-yl)-1H-pyrazol-5-amine], the mortality at 100 ppm in the assay on Myzus persicae [4] is not below 50%.

As for `CCSc1c(-c2nc3cc(C(F)(F)F)ncn3n2)nn(C)c1NC(C)=O` [compound 10, N-(4-(ethylthio)-1-methyl-3-(7-(trifluoromethyl)-[1,2,4]triazolo[1,5-c]pyrimidin-2-yl)-1H-pyrazol-5-yl)acetamide], the mortality at 100 ppm in the assay with Nilaparvata lugens [3] is not below 50%.

Take `CCS(=O)(=O)c1c(-c2nc3cc(C(F)(F)F)ncn3n2)nn(C)c1NC(C)=O` [compound 11, N-(4-(Ethylsulfonyl)-1-methyl-3-(7-(trifluoromethyl)-[1,2,4]triazolo[1,5-c]pyrimidin-2-yl)-1H-pyrazol-5-yl)acetamide]: the mortality at 100 ppm with Nilaparvata lugens [1], in the assay on Nilaparvata lugens [3], in the assay with Sogatella furcifera and in the assay on Myzus persicae [4] was not below 50% throughout.

With `CCSc1c(-c2cn3cnc(C(F)(F)F)cc3n2)nn(C)c1NC(=O)OC(C)(C)C` [compound 26, t-butyl(4-(ethylthio)-1-methyl-3-(7-(trifluoromethyl)imidazo[1,2-c]pyrimidin-2-yl)-1H-pyrazol-5-yl)carbamate], in the assay with Sogatella furcifera, the mortality at 100 ppm is not below 50%.

With `CCSc1c(-c2cn3cnc(C(F)(F)F)cc3n2)nn(C)c1NC(=O)C(F)(F)F` [compound 27], the mortality at 100 ppm with Nilaparvata lugens [3], with Sogatella furcifera and in the assay on Myzus persicae [4] was not below 50% throughout.

Regarding `CCSc1c(-c2cn3cnc(C(F)(F)F)cc3n2)nn(C)c1N(C)C(=O)OC(C)(C)C` [compound 28, t-butyl(4-(ethylthio)-1-methyl-3-(7-(trifluoromethyl)imidazo[1,2-c]pyrimidin-2-yl)-1H-pyrazol-5-yl)(methyl)carbamate], the mortality at 100 ppm with Nilaparvata lugens [3] is not below 50%.

As to `CCSc1c(-c2cn3cnc(C(F)(F)F)cc3n2)nn(C)c1NC` [compound 29, 4-(ethylthio)-N,1-dimethyl-3-(7-(trifluoromethyl)imidazo[1,2-c]pyrimidin-2-yl)-1H-pyrazol-5-amine], the mortality at 100 ppm in the assay on Nilaparvata lugens [3] and with Sogatella furcifera was not below 50% throughout.

Turning to `CCSc1c(-c2cn3cnc(C(F)(F)F)cc3n2)nn(C)c1N(C)C(=O)C(F)(F)F` [compound 30, N-(4-(ethylthio)-1-methyl-3-(7-(trifluoromethyl)imidazo[1,2-c]pyrimidin-2-yl)-1H-pyrazol-5-yl)-2,2,2-trifluoro-N-methylacetamide], the mortality at 100 ppm in the assay with Nilaparvata lugens [1] and in the assay with Sogatella furcifera was not below 50% in each case.

In the case of `CCSc1c(-c2cn3cnc(C(F)(F)F)cc3n2)nn(C)c1N` [compound 39, 4-(ethylthio)-1-methyl-3-(7-(trifluoromethyl)imidazo[1,2-c]pyrimidin-2-yl)-1H-pyrazol-5-amine], the mortality at 100 ppm with Nilaparvata lugens [1], in the assay with Nilaparvata lugens [3], in the assay with Sogatella furcifera and with Myzus persicae [4] was not below 50% in each case.

For the compound `CCS(=O)(=O)c1c(-c2nc3cc(C(F)(F)F)ncn3c2Cl)nn(C)c1NC(=O)C(F)(F)F` [compound 53, N-(3-(3-chloro-7-(trifluoromethyl)imidazo[1,2-c]pyrimidin-2-yl)-4-(ethylsulfonyl)-1-methyl-1H-pyrazol-5-yl)-2,2,2-trifluoroacetamide], the mortality at 100 ppm in the assay on Nilaparvata lugens [1], in the assay with Nilaparvata lugens [3], in the assay on Sogatella furcifera and in the assay with Myzus persicae [4] was not below 50% throughout.

As for `CCS(=O)(=O)c1c(-c2nc3cc(C(F)(F)F)ncn3c2Br)nn(C)c1NC(=O)C(F)(F)F` [compound 54, N-(3-(3-bromo-7-(trifluoromethyl)imidazo[1,2-c]pyrimidin-2-yl)-4-(ethylsulfonyl)-1-methyl-1H-pyrazol-5-yl)-2,2,2-trifluoroacetamide], the mortality at 100 ppm with Nilaparvata lugens [1], in the assay on Nilaparvata lugens [3], in the assay with Sogatella furcifera and with Myzus persicae [4] was not below 50% throughout.

In the case of `CCSc1c(-c2cn3cnc(C(F)(F)F)cc3n2)nn(C)c1NC(=O)c1ccccn1` [compound 84, N-(4-(ethylthio)-1-methyl-3-(7-(trifluoromethyl)imidazo[1,2-c]pyrimidin-2-yl)-1H-pyrazol-5-yl)picolinamide], the mortality at 1000 ppm in the assay on Spodoptera litura is not below 50%. Further, in the assay with Nilaparvata lugens [3], the mortality at 100 ppm was not below 50%.

In the case of `CCS(=O)(=O)c1c(-c2cn3cnc(C(F)(F)F)cc3n2)nn(C)c1NC(=O)c1ccccn1` [compound 86, N-(4-(ethylsulfonyl)-1-methyl-3-(7-(trifluoromethyl)imidazo[1,2-c]pyrimidin-2-yl)-1H-pyrazol-5-yl)picolinamide], the mortality at 1000 ppm with Spodoptera litura is not below 50%. For the same compound, the mortality at 100 ppm in the assay with Nilaparvata lugens [3] and in the assay with Myzus persicae [4] was not below 50% each time.

With `CCS(=O)(=O)c1c(-c2cn3cnc(C(F)(F)F)cc3n2)nn(C)c1N` [compound 100, 4-(ethylsulfonyl)-1-methyl-3-(7-(trifluoromethyl)imidazo[1,2-c]pyrimidin-2-yl)-1H-pyrazol-5-amine], the mortality at 100 ppm with Nilaparvata lugens [1], in the assay on Nilaparvata lugens [3], in the assay with Sogatella furcifera and with Myzus persicae [4] was not below 50% in each case.

The term mortality denotes the share of the test organisms that died.
